Structures are written as SMILES. Where a name gives a salt, the structure may show the parent alone.

The assay has as its system post-synaptic Dopamine (D.A.) receptors. Description: Inhibition of Apomorphine Induced Climbing in the Mouse. It counts as in vivo. As to conditions: male CD1 mice, apomorphine 1 mg/kg s.c., test compound administered subcutaneously 30 minutes prior to apomorphine (b213 says pre-treated orally), climbing scored at 10 and 20 minutes, read-out: ED50 (dose that produced a 50% inhibition of apomorphine-induced climbing). Here is the method: The results in the following table are on illustration of the anti-psychotic activity of the present compounds as shown by Inhibition of Apomorphine Induced Climbing in the Mouse, a standard test.
The test is based on that described by Protais, P., Constantin, J. and Schwartz J. C. (1976), Psychopharmacology, 50, 1-6.
When mice are given a dose of 1 mg/kg apomorphine and then placed in an enclosed environment, such as an inverted wire cage, they are seen to climb around the walls. This behavioural phenomenon is thought to be a consequence of the stimulation of post-synaptic Dopamine (D.A.) receptors in the nucleus accumbens. Inhibition of apomorphine induced climbing is therefore indicative of post-synaptic D.A. receptor blockade in the accumbens.
Groups of 10 male CD1 mice, weighing 25-30 g were pre-treated orally with either graded doses of the test compound or vehicle, at appropriate time intervals before the subcutaneous administration of a sub-maximal dose of apomorphine (1 mg/kg). Immediately after the apomorphine injection the mice were placed in wire `climbing cages` and each animal was scored for climbing behaviour at 10 and 20 minutes post apomorphine as follows:
Four paws on cage floor=0
The test compound was administered subcutaneously 30 minutes prior to administration of apomorphine.
The total score was calculated for each group of mice and expressed as a percentage inhibition of climbing. [formula]
ED50's and fiducial limits were calculated according to the method of Litchfield and Wilcoxon, the ED50 being the dose that produced a 50% inhibition of apomorphine--induced climbing.
The term ED50 denotes the midpoint of the dose-response relation. `COc1cc(N)c(SC)cc1C(=O)N[C@@H]1C[C@H]2CC[C@@H](C1)N2Cc1ccccc1` [Example 1, 4-Amino-2-methoxy-5-methylthio-N-[3-β-(8-benzyl-8-azabicyclo(3,2,1)octyl)]benzamide]: the ED50 came to 0.66 mg/kg.
`COc1cc(N)c(SC)cc1C(=O)N[C@@H]1C[C@H]2CCC[C@@H](C1)N2Cc1ccc(F)cc1` [Example 2, 4-Amino-2-methoxy-5-methylthio-[N-(9-(4^1-fluorobenzyl)-9-azabicyclo(3.3.1)non-3β-yl)]benzamide]: the 50% effective dose (ED50) came out at 0.32 mg/kg.
The result for `COc1cc(SC)cc(C(=O)N[C@@H]2C[C@H]3CC[C@@H](C2)N3Cc2ccccc2)c1OC` [Example 3, 2,3-Dimethoxy-5-methylthio-N[3β(8-benzyl-8-azabicyclo[3.2.1]octyl)]benzamide hydrochloride] reads 0.44 mg/kg.
As for `COc1cc(SC)cc(C(=O)N[C@@H]2C[C@H]3CCC[C@@H](C2)N3Cc2ccc(F)cc2)c1OC` [Example 4, 2,3-dimethoxy-5-methylthio-[N-(9-(4^1-fluorobenzyl)-9-azabicyclo(3.3.1)non-3β-yl)]benzamide], the figure is 0.56 mg/kg.

These data come from patent publication US4499099A, “Nortropane and granatane type compounds useful in treating psychosis” (Beecham Group p.l.c., priority 1981, dated 1985).
